Experiments:
[1] = pH comparison of pazopanib/CAPTISOL solutions with similar composition; type: physicochemical; conditions: about 22.4 mg pazopanib salt + about 157 mg CAPTISOL (1.5x molar ratio to drug) in 1 mL water
Description: From the results of the pH and the chloride content analysis it is concluded that the pharmaceutical ingredient from sample-1 contains 2-HCl per each pazopanib molecule, compared to active from sample-2, which contains only 1 HCl/per drug molecule.

[2] = Precipitation during ambient (room temperature) storage of the formulation; type: physicochemical; conditions: high drug concentration; crystallized out during storage and during drug release

pH, measured [1] | Stability of high concentration formulations (on shelf and upon dilution) [2] | Compound
1.68 |  | Cc1ccc(Nc2nccc(N(C)c3ccc4c(C)n(C)nc4c3)n2)cc1S(N)(=O)=O [Pazopanib-Sample 1, 5-[[4-[(2,3-Dimethyl-2H-indazol-6-yl)methylamino]-2-pyrimidinyl]amino]-2-methylbenzolsulfonamide]
3.36 | very unstable | Cc1ccc(Nc2nccc(N(C)c3ccc4c(C)n(C)nc4c3)n2)cc1S(N)(=O)=O [Pazopanib-Sample 2 (1HCl), 5-[[4-[(2,3-Dimethyl-2H-indazol-6-yl)methylamino]-2-pyrimidinyl]amino]-2-methylbenzolsulfonamide]
3.34 |  | Cc1ccc(Nc2nccc(N(C)c3ccc4c(C)n(C)nc4c3)n2)cc1S(N)(=O)=O [Pazopanib-Sample 2-lyophilized-TFE (1HCl)] [5-[[4-[(2,3-Dimethyl-2H-indazol-6-yl)methylamino]-2-pyrimidinyl]amino]-2-methylbenzolsulfonamide]

— patent US9895369B2, “Stable and soluble formulations of receptor tyrosine kinase inhibitors, and methods of preparation thereof” (ForSight Vision4, Inc., priority 2014, dated 2018)
